From article PMC6984126, “Ficus deltoidea extract down-regulates protein tyrosine phosphatase 1B expression in a rat model of type 2 diabetes mellitus: a new insight into its antidiabetic mechanism” (Journal of Nutritional Science, 2020)
Marks after values point to notes of the source that are not given here.

What was measured:
[1] = test system: GLUT2 gene (Slc2a2) mRNA; assay: Hepatic gene expression by quantitative real-time PCR: Slc2a2; settings: liver mRNA; MET 150 mg/kg
Description: (§3) Total RNA was isolated from rat livers using an Rneasy Mini Kit according to the manufacturer's protocol (Qiagen). First-strand cDNA synthesis from 1 µg total RNA was done employing a reverse transcriptase kit and oligo(dT) (Thermo Scientific). PTP1B, phosphoenolpyruvate carboxykinase (PEPCK), glucose 6-phosphatase (G6Pase), GLUT2 (Slc2a2) and insulin receptor (INR) target genes were amplified by quantitative real-time-PCR using specific primers (Supplementary Table S1). cDNA was added to a Quantifast SYBR Green qPCR Master Mix (Qiagen) containing 30 pg/ml of each primer. […] The β-actin gene was amplified in the same reaction as a reference gene to normalise data. Relative gene expression was calculated using the Livak & Schmittgen method([42]).

[2] = test system: GLUT2; assay: GLUT2 protein levels in liver and pancreas of diabetic rats; assay type: in vivo, Wistar rats; settings: MET 150 mg/kg
Description: (§1) NA was dissolved in normal saline.
(§2) At the end of the 28th day, blood samples were withdrawn from the retro-orbital venous plexus under light ether anaesthesia into two sampling tubes, one containing Na-EDTA at day 28 post-medication for the estimation of Hb([22]). The second blood sample was centrifuged at 3500 rpm for 15 min to separate sera for the estimation of insulin level([23]). Other biochemical parameters such as alanine transaminase and aspartate transaminase activities in serum were measured([24]). Serum levels of total bilirubin([25]), total protein([26]), TAG([27]), total cholesterol([28]), HDL-cholesterol([29]) and LDL-cholesterol([30]) were measured using commercially available kits (Quimica Clinica). Preparation of pancreatic homogenate was done according to Mansour et al.([31]). The activities of superoxide dismutase (SOD), glutathione peroxidase (GPx) and catalase (CAT) in hepatic and pancreatic tissues were estimated([32]–[34]), respectively. Reduced glutathione (GSH)([35]), lipid peroxidation products were estimated by determining malondialdehyde (MDA) content in the hepatic and pancreatic tissue([36]) and GLUT2 was determined using commercial diagnostic kits (Chema Diagnostica)([37]).

[3] = test system: PTP1B mRNA; assay: Hepatic gene expression by quantitative real-time PCR: PTP1B; settings: liver mRNA; MET 150 mg/kg
Description: as §3

[4] = test system: insulin receptor (INR) mRNA; assay: Hepatic gene expression by quantitative real-time PCR: insulin receptor; settings: MET 150 mg/kg
Description: as §3

[5] = test system: streptozotocin–nicotinamide-induced type 2 diabetic rats; assay: Pancreatic oxidative stress biomarkers in STZ–NA diabetic rats; assay type: in vivo, Wistar rats; settings: MET 150 mg/kg
Description: as §1, §2

[6] = test system: phosphoenolpyruvate carboxykinase (PEPCK) mRNA; assay: Hepatic gene expression by quantitative real-time PCR: PEPCK; settings: MET 150 mg/kg
Description: as §3

[7] = test system: streptozotocin–nicotinamide-induced type 2 diabetic rats; assay: Serum hepatic markers, bilirubin and total protein in STZ–NA diabetic rats; assay type: in vivo, Wistar rats; settings: MET 150 mg/kg orally, 4 weeks
Description: as §1, §2

[8] = test system: streptozotocin–nicotinamide-induced type 2 diabetic rats; assay: Fasting blood glucose, insulin and Hb in STZ–NA diabetic rats; assay type: in vivo, Wistar rats; settings: MET 150 mg/kg orally; 4 weeks
Description: as §1, §2

[9] = test system: glucose 6-phosphatase (G6Pase) mRNA; assay: Hepatic gene expression by quantitative real-time PCR: G6Pase; settings: MET 150 mg/kg
Description: as §3

melting point [°C]	Compound	Slc2a2 expression, % of the normal level [1] [%]	GLUT2 in the liver compared with the diabetic control [2]	GLUT2 in the pancreas compared with the diabetic control [2]	PTP1B expression level, % of the levels in the diabetic group [3]	Effect of STZ on hepatic insulin receptor mRNA levels [4]	Effect on MDA level in the pancreas of diabetic rats [5]	Increase in pancreatic GPx compared with diabetic control rats [5] [%]	Increase in pancreatic GSH content [5] [%]	Expression of PEPCK in the liver [6]	Total bilirubin [7]	Total protein [7]	Hb [8]	Expression of G6Pase in the liver [9]
308 to 309	CC1(C)CC[C@]2(C)CC[C@]3(C)C(=C[C@H](O)C4[C@@]5(C)CC[C@H](O)[C@@](C)(C(=O)O)C5CC[C@]43C)C2C1 (stereo partly drawn) [Compound F3, 3β,11β-dihydroxyolean-12-en-23-oic acid]	–	–	–	–	–	–	–	–	–	–	–	–	–
–	CN(C)C(=N)N=C(N)N [MET, metformin]	92	significantly increased	significantly increased	approximately 75%	reversed	did not significantly affect	63	46	decreased expression	4† mg/l	114* g/l	135† g/l	decreased expression
